Tests used:
[1] = test system: diabetic foot animal model; experiment: Diabetic foot animal model (high-fat diet mice, back wound); format: in vivo, C57BL/6 male mice
Text: Twenty 2-month-old normal wild-type C57BL/6 male mice were ordered from Jicai Pharmaceutical and divided into two groups of 10 each. One group was fed a standard diet (SD), and the other group was fed a 60% high-fat diet (HFD) to induce obesity. Both groups were fed under the same conditions for about 6 months. Additionally, five 2-month-old young male mice were ordered to perform subsequent wound modeling and comparison with the SD group (8 months old, 10 mice) and the HFD group (8 months old, 10 mice). Mice were anesthetized with isoflurane, and a razor was used to remove the back hair, exposing the back skin. A marker pen and ruler were used to draw a 1.0 cm×0.5 cm rectangular area on each side of the back. A sterilized surgical scissor was used to cut away the skin in this area without damaging the subcutaneous tissue. After the mice regained consciousness, they were carefully placed back in their cages. The animals were euthanized at specified time intervals after the injury, and the wound tissue was collected for subsequent experiments and analysis. After creating wounds on the left and right sides of the mouse's back, the mice were grouped and administered drugs as indicated in the table below (where Control represents a blank drug control with DMSO+vehicle). The 1228 gel (0.5% or 1%) was administered every 12 hours, with a dose of 50 mg each time. The wounds were photographed and weighed daily (every 24 hours) for 7 days, and then samples were collected at the 7th day. Specific operational details are described in the section “3. Sample Collection and Analysis” below. [table] After anesthesia, the mice were placed on an operation table with their backs extended, and high-definition photographs of the entire back and the local wound area of the mice were taken (including a ruler). […] The body weight of the mice was also measured to analyze the impact of the drug on systemic metabolism. On the seventh day of wound repair after modeling on the mouse's back, the mice were euthanized, and the wound tissue was collected for subsequent experiments and analysis, including tissue from the center of the wound and distal non-wounded control skin. The tissue was embedded in OCT and subjected to cryosectioning for subsequent HE or multiple staining analysis. Mouse skin tissue was placed in an embedding box filled with OCT (Tissue-Tek® O.C.T. Compound, Catalog #4583, Sakura Finetek USA Inc) and laid flat on dry ice to quick-freeze. Once the OCT was fully frozen, the embedding box was transferred to a −20° C. freezer for storage. Before sectioning, the cryostat was pre-cooled to −25° C. […] The flattened tissue sections were attached to glass slides and checked under a microscope for completeness. The sections were left to air-dry at room temperature for 2-3 hours before being stored in a −20° C. freezer. The sections were taken out of the −20° C. freezer and allowed to thaw at room temperature, and the condensation water was dried for 10-20 minutes until completely dry. The sections were then fixed with 500-1000 μL of frozen 4% paraformaldehyde (4% paraformaldehyde prepared by diluting 10 ml of 16% PFA—paraformaldehyde in 30 ml of frozen PBS and stored at 4° C.) for 10 minutes at room temperature. The sections were washed once with dH2O (single distilled water) (incubation<1 minute). After washing, hematoxylin solution was added, and the sections were incubated for 55-60 seconds, then quickly washed three times with running tap water until no blue dye was visible. Eosin solution was added next, and the sections were incubated for 25-30 seconds, then quickly washed three times with running tap water, followed by washing with 70% ethanol once. The sections were dehydrated in 100% ethanol for 5 minutes and then in xylene for 5 minutes. Finally, the sections were coverslipped with a neutral resin, taking care not to trap air bubbles when placing the coverslip with forceps. […]

[2] = test system: atopic dermatitis/eczema in mice; experiment: Atopic dermatitis/eczema model in mice (dust mite extract + SEB); format: in vivo

CCc1cc(O)c(F)cc1-c1ccc2c(-c3nc4c([nH]3)CN(C(=O)NCC(O)CCl)C4)n[nH]c2c1 (stereo not shown) [MDI-1288]
Lipolysis in the diabetic foot model ([1]; conclusion / summary statement): can significantly promote lipolysis
Myofibroblasts at the wound ([1]; conclusion / summary statement): significantly increase the proportion of myofibroblasts
Wound healing ([1]; conclusion / summary statement): effectively promote wound healing

CCc1cc(O)c(F)cc1-c1ccc2c(-c3nc4c([nH]3)CN(C(=O)N3CC[C@H](O)C3)C4)n[nH]c2c1 [MDI-1228, (S)-(2-(6-(2-ethyl-5-fluoro-4-hydroxyphenyl)-1H-indazol-3-yl)-4,6-dihydropyrrolo[3,4-d]imidazol-5-(1H)-yl)(3-hydroxylpyrrolidin-1-yl)ketone]
Skin HE staining and toluidine blue staining ([2]; 0.5% MDI-1228 gel): a decrease in mast cells and inflammatory cells compared to the model group
Skin HE staining and toluidine blue staining ([2]; 1% and 3% MDI-1228 gel): relatively significant therapeutic effects
Reduction in area under the curve (AUC) of the dermatitis scores vs. model group ([2]; 3% MDI-1228 gel): 23.75%
Number of Scratch Incidents (±SE) ([2]; Day 1, 0.5% MDI-1228 gel): 24.0 ± 3.60
Scratch Duration (±SE) ([2]; Day 1, 0.5% MDI-1228 gel): 241.00 ± 48.16
Skin Erythema, Hemorrhage, Eruption, and Desquamation (Lesion Scoring) (Mean ± SE) ([2]; Day 1, 0.5% MDI-1228 gel 0.7 g gel/kg twice a day): 4.13 ± 0.55
Number of Scratch Incidents (±SE) ([2]; Day 1, 1% MDI-1228 gel): 20.38 ± 2.08
Scratch Duration (±SE) ([2]; Day 1, 1% MDI-1228 gel): 211.50 ± 22.88
Skin Erythema, Hemorrhage, Eruption, and Desquamation (Lesion Scoring) (Mean ± SE) ([2]; Day 1, 1% MDI-1228 gel 1 g gel/kg twice a day): 4.75 ± 0.75
Number of Scratch Incidents (±SE) ([2]; Day 1, 3% MDI-1228 gel): 23.00 ± 2.46
Scratch Duration (±SE) ([2]; Day 1, 3% MDI-1228 gel): 288.00 ± 19.68
Skin Erythema, Hemorrhage, Eruption, and Desquamation (Lesion Scoring) (Mean ± SE) ([2]; Day 1, 3% MDI-1228 gel 1 g gel/kg twice a day): 3.38 ± 0.42
Skin Erythema, Hemorrhage, Eruption, and Desquamation (Lesion Scoring) (Mean ± SE) ([2]; Day 4, 0.5% MDI-1228 gel 0.7 g gel/kg twice a day): 2.88 ± 0.64
Skin Erythema, Hemorrhage, Eruption, and Desquamation (Lesion Scoring) (Mean ± SE) ([2]; Day 4, 1% MDI-1228 gel 1 g gel/kg twice a day): 3.25 ± 0.49
Skin Erythema, Hemorrhage, Eruption, and Desquamation (Lesion Scoring) (Mean ± SE) ([2]; Day 4, 3% MDI-1228 gel 1 g gel/kg twice a day): 2.63 ± 0.46
Skin Erythema, Hemorrhage, Eruption, and Desquamation (Lesion Scoring) (Mean ± SE) ([2]; Day 7, 0.5% MDI-1228 gel 0.7 g gel/kg twice a day): 2.13 ± 0.58
Skin Erythema, Hemorrhage, Eruption, and Desquamation (Lesion Scoring) (Mean ± SE) ([2]; Day 7, 1% MDI-1228 gel 1 g gel/kg twice a day): 2.13 ± 0.30
Skin Erythema, Hemorrhage, Eruption, and Desquamation (Lesion Scoring) (Mean ± SE) ([2]; Day 7, 3% MDI-1228 gel 1 g gel/kg twice a day): 1.75 ± 0.31
Number of Scratch Incidents (±SE) ([2]; Day 14, 0.5% MDI-1228 gel): 30.38 ± 3.79
Scratch Duration (±SE) ([2]; Day 14, 0.5% MDI-1228 gel): 165.63 ± 27.56
Skin Erythema, Hemorrhage, Eruption, and Desquamation (Lesion Scoring) (Mean ± SE) ([2]; Day 14, 0.5% MDI-1228 gel 0.7 g gel/kg twice a day): 1.25 ± 0.36
Number of Scratch Incidents (±SE) ([2]; Day 14, 1% MDI-1228 gel): 28.13 ± 2.05
Scratch Duration (±SE) ([2]; Day 14, 1% MDI-1228 gel): 182.0 ± 25.39
Skin Erythema, Hemorrhage, Eruption, and Desquamation (Lesion Scoring) (Mean ± SE) ([2]; Day 14, 1% MDI-1228 gel 1 g gel/kg twice a day): 1.38 ± 0.18
Number of Scratch Incidents (±SE) ([2]; Day 14, 3% MDI-1228 gel): 23.75 ± 2.62
Scratch Duration (±SE) ([2]; Day 14, 3% MDI-1228 gel): 173.13 ± 19.26
Skin Erythema, Hemorrhage, Eruption, and Desquamation (Lesion Scoring) (Mean ± SE) ([2]; Day 14, 3% MDI-1228 gel 1 g gel/kg twice a day): 1.63 ± 0.26
Effect on inflammation in atopic dermatitis/eczema (conclusion) ([2]; MDI-1228 gel preparation): significant inhibitory effects on inflammation
IFN-γ level in serum ([2]; MDI-1228 gel, vs. model group): significantly increased
IL-4 level in serum ([2]; MDI-1228 gel, vs. model group): significantly reduced
IL-13 level in serum ([2]; MDI-1228 gel, vs. model group): significantly reduced
Behavioral analysis (scratch incidents and scratch duration) ([2]; MDI-1228 high-dose (3% gel), tofacitinib 10 mg/kg): certain therapeutic effect in the behavioral analysis
Clinical lesion scoring, therapeutic effect ([2]; gels with 0.5%, 1%, 3% MDI-1228, positive control Tofacitinib 10 mg/kg, 14 days): therapeutic effects similar to the positive control drug
TNF-α level in serum ([2]; high, medium, and low dose MDI-1228 gel, vs. model group): a reduction in TNF-α levels
Epithelial healing (wound non-healing distance) ([1]; 1% MDI-1228 gel, HFD group): could effectively promote epithelial healing
Area of green lipid droplets in the wound center (Bodipy staining) ([1]; MDI-1228 gel 50 mg every 12 hours, 7 days): significantly reduced
Size of the adipocytes in the wound center (HE staining) ([1]; MDI-1228 gel 50 mg every 12 hours, 7 days, vs. control): significantly reduced
